Literature values, collected in patent publication EP0280593B1, “Composition on the basis of an amino-acid and vitamins for use in cancer therapy” (Rougereau, André, priority 1987, dated 1988).

What was measured:
[1] = test system: rat; details: par voie orale chez le rat
[2] = test system: souris; details: par voie orale chez la souris

## NCCC(=O)O [β-alanine]
[1]
  dose léthale DL₅₀: > 10000 mg/kg
[2]
  dose léthale DL₅₀: > 10000 mg/kg
